Laboratory results from publication PMC5075766, “Antiplasmodial Activity Is an Ancient and Conserved Feature of Tick Defensins” (Frontiers in Microbiology, 2016).
Read-outs that look alike come from different tables or passages of the source. Positions of bridges follow the written chain, without caps; N, C: chain ends. Residues, ends and D or L forms follow the SMILES beside them.

Test system: blood stages of P. falciparum
Assay type: cell-based, Plasmodium falciparum
Conditions: 48 h, starting parasitemia 0.5%, haematocrit 1%, SYBR Green I flow cytometry
Method: The growth inhibition assay was described in detail in [Fréville et al. (2013)]. Briefly, assays were carried out in 96-well plates with a starting parasitemia of 0.5% at a haematocrit of 1% using SYBR Green I ([Kelly et al., 2009]). The peptides were added to the culture at different concentrations ranging from 6.25 μM to 50 μM (final concentrations) in a volume of 250 μl of RPMI-AlbuMAX (0.5%) and incubated for an additional 48 h to allow all stages to complete one cycle. Cultures were stained for 30 min in the dark with SYBR Green I 1X (Invitrogen) diluted in 20 mM Tris pH8.8, 138 mM NaCl, and fixed with 1% paraformaldehyde. Fixed parasited red blood cells (RBC) were stored at 4°C in the dark until flow cytometry analysis. Parasite growth was assessed by flow cytometry on a BD FACSCantoII (BD Biosciences). Cell pairs were excluded from the analysis using a forward scatter (FSC)-width versus FSC-area dot plot. […] Fluorescence analysis (Green fluorescence) was performed using BD FACSDiva software (version 6.1.3, BD Biosciences) on a total of 200,000 acquired events. Fluorescence was observed as described by [Izumiyama et al. (2009)] on a two-parameter dot plot (Green fluoresecence-FSC). Fluorescence of non-infected RBC was adjusted to plot between […]. Results are expressed as the percentage of growth inhibition. […]

CC[C@H](C)[C@H](NC(=O)[C@@H]1CSSC[C@@H]2NC(=O)[C@H](Cc3c[nH]cn3)NC(=O)[C@H](CCCNC(=N)N)NC(=O)[C@H](CC(=O)O)NC(=O)[C@@H]3CSSC[C@H](NC(=O)[C@H]([C@@H](C)O)NC(=O)[C@H](CC(C)C)NC(=O)[C@H](CCCCN)NC(=O)[C@H](Cc4c[nH]c5ccccc45)NC(=O)[C@H](CCCNC(=N)N)NC(=O)CNC(=O)CNC(=O)[C@H](CSSC[C@H](NC(=O)[C@H](Cc4ccccc4)NC(=O)[C@H](Cc4ccccc4)NC(=O)CN)C(=O)N4CCC[C@H]4C(=O)N[C@@H](Cc4ccc(O)cc4)C(=O)N[C@@H](CC(N)=O)C(=O)NCC(=O)N[C@@H](Cc4ccc(O)cc4)C(=O)N3)NC(=O)[C@H](Cc3ccc(O)cc3)NC(=O)CNC(=O)CNC(=O)[C@H](CCCNC(=N)N)NC(=O)[C@H](CCCNC(=N)N)NC(=O)[C@H](CCCNC(=N)N)NC(=O)[C@H](CC(C)C)NC(=O)[C@H](CCCCN)NC(=O)[C@H](CCCCN)NC(=O)[C@H](CCCNC(=N)N)NC2=O)C(=O)N[C@@H]([C@@H](C)CC)C(=O)N1)C(=O)N[C@@H](CCSC)C(=O)N[C@@H](CC(N)=O)C(=O)O [DefMT5] (H-GFFCPYNGYCDRHCRKKLRRRGGYCGGRWKLTCICIMN-OH; disulfide 4-25, 10-33, 14-35; N-terminus assumed)
P. falciparum growth inhibition (6.25 μM peptide): 20%
P. falciparum growth inhibition (50 μM peptide (highest concentration tested)): ~100%
